Measurements taken from ChEMBL document CHEMBL5532698, “2,3-Dihydroquinazolin-4(1H)-ones and quinazolin-4(3H)-ones as broad-spectrum cytotoxic agents and their impact on tubulin polymerisation” (RSC Med Chem, 2024).
Active and inactive are the calls of the source. The rule behind the calls is not given here.

Legend:
A-431 [1] = test: Antiproliferative activity against human A-431 cells assessed as cell growth inhibition incubated for 72 hrs by MTT assay; assay type: functional
MIA PaCa-2 [2] = test: Antiproliferative activity against human MIA PaCa-2 cells assessed as cell growth inhibition incubated for 72 hrs by MTT assay; assay type: functional
DU-145 [3] = test: Antiproliferative activity against human DU-145 cells assessed as cell growth inhibition at 25 uM incubated for 72 hrs by MTT assay relative to control; assay type: functional
HT-29 [4] = test: Antiproliferative activity against human HT-29 cells assessed as cell growth inhibition incubated for 72 hrs by MTT assay; assay type: functional
[5] = Antiproliferative activity against human SJG2 cells assessed as cell growth inhibition incubated for 72 hrs by MTT assay; assay type: functional; conditions: SJ-G2
A2780 [6] = test: Antiproliferative activity against human A2780 cells assessed as cell growth inhibition at 25 uM incubated for 72 hrs by MTT assay relative to control; assay type: functional
A-431 [7] = test: Antiproliferative activity against human A-431 cells assessed as cell growth inhibition at 25 uM incubated for 72 hrs by MTT assay relative to control; assay type: functional
[8] = Antiproliferative activity against human SJG2 cells assessed as cell growth inhibition at 25 uM incubated for 72 hrs by MTT assay relative to control; assay type: functional; conditions: SJ-G2
U-87 MG [9] = test: Antiproliferative activity against human U87 cells assessed as cell growth inhibition incubated for 72 hrs by MTT assay; assay type: functional, U-87MG ATCC
[10] = Cytotoxicity against human MCF-10A cells assessed as cell growth inhibition incubated for 72 hrs by MTT assay; assay type: toxicity, cell-based
DU-145 [11] = test: Antiproliferative activity against human DU-145 cells assessed as cell growth inhibition incubated for 72 hrs by MTT assay; assay type: functional
MCF7 [12] = test: Antiproliferative activity against human MCF7 cells assessed as cell growth inhibition at 25 uM incubated for 72 hrs by MTT assay relative to control; assay type: functional
NCI-H460 [13] = test: Antiproliferative activity against human NCI-H460 cells assessed as cell growth inhibition incubated for 72 hrs by MTT assay; assay type: functional
[14] = Cytotoxicity against human MCF-10A cells assessed as cell growth inhibition at 25 uM incubated for 72 hrs by MTT assay relative to control; assay type: toxicity, cell-based
A2780 [15] = test: Antiproliferative activity against human A2780 cells assessed as cell growth inhibition incubated for 72 hrs by MTT assay; assay type: functional
MIA PaCa-2 [16] = test: Antiproliferative activity against human MIA PaCa-2 cells assessed as cell growth inhibition at 25 uM incubated for 72 hrs by MTT assay relative to control; assay type: functional
BE(2)-C [17] = test: Antiproliferative activity against human BE2C cells assessed as cell growth inhibition incubated for 72 hrs by MTT assay; assay type: functional
BE(2)-C [18] = test: Antiproliferative activity against human BE2C cells assessed as cell growth inhibition at 25 uM incubated for 72 hrs by MTT assay relative to control; assay type: functional
U-87 MG [19] = test: Antiproliferative activity against human U87 cells assessed as cell growth inhibition at 25 uM incubated for 72 hrs by MTT assay relative to control; assay type: functional, U-87MG ATCC
NCI-H460 [20] = test: Antiproliferative activity against human NCI-H460 cells assessed as cell growth inhibition at 25 uM incubated for 72 hrs by MTT assay relative to control; assay type: functional
Tubulin (Homo sapiens) [21] = target: T1, Tubulin (Homo sapiens) (UniProt P68371+Q9H4B7+P0DPH7+P68366+Q13509+Q71U36+P04350+Q3ZCM7+P07437+P68363+Q9BQE3+Q6PEY2+Q13885+Q9BVA1+Q9BUF5); test: Induction of tubulin (unknown origin) polymerization assessed as microtubule formation by measuring increase in fluorescence at 10 uM by fluorometric analysis; assay type: protein-complex assay
MCF7 [22] = test: Antiproliferative activity against human MCF7 cells assessed as cell growth inhibition incubated for 72 hrs by MTT assay; assay type: functional
HT-29 [23] = test: Antiproliferative activity against human HT-29 cells assessed as cell growth inhibition at 25 uM incubated for 72 hrs by MTT assay relative to control; assay type: functional
Tubulin (Homo sapiens) [24] = target: T1, Tubulin (Homo sapiens); test: Inhibition of tubulin (unknown origin) polymerization assessed as reduction microtubule formation at 10 uM by fluorometric analysis; assay type: protein-complex assay
MIA PaCa-2 [25] = test: Induction of G2/M phase cell cycle arrest in human MIA PaCa-2 cells assessed as S phase cells at 0.1 uM incubated for 24 hrs by PI/RNase staining based analysis (reference value: 11 +/- 1%); assay type: functional
MIA PaCa-2 [26] = test: Induction of G2/M phase cell cycle arrest in human MIA PaCa-2 cells assessed as sub G1 phase cells at 0.5 uM incubated for 24 hrs by PI/RNase staining based analysis (reference value: 4 +/- 2%); assay type: functional
Tubulin (Homo sapiens) [27] = target: T1, Tubulin (Homo sapiens); test: Inhibition of tubulin (unknown origin) polymerization assessed as reduction microtubule formation at 10 uM measured after approximately 1 hrs by fluorometric analysis; assay type: protein-complex assay
MIA PaCa-2 [28] = test: Induction of G2/M phase cell cycle arrest in human MIA PaCa-2 cells at 0.5 uM incubated for 24 hrs by PI/RNase staining based analysis (reference value: 20 +/- 1%); assay type: functional
MIA PaCa-2 [29] = test: Induction of G2/M phase cell cycle arrest in human MIA PaCa-2 cells assessed as S phase cells at 0.5 uM incubated for 24 hrs by PI/RNase staining based analysis (reference value: 11 +/- 1%); assay type: functional
MIA PaCa-2 [30] = test: Induction of G2/M phase cell cycle arrest in human MIA PaCa-2 cells assessed as sub G1 phase cells at 0.1 uM incubated for 24 hrs by PI/RNase staining based analysis (reference value: 4 +/- 2%); assay type: functional
MIA PaCa-2 [31] = test: Induction of G2/M phase cell cycle arrest in human MIA PaCa-2 cells at 0.1 uM incubated for 24 hrs by PI/RNase staining based analysis (reference value: 20 +/- 1%); assay type: functional
MIA PaCa-2 [32] = test: Induction of G2/M phase cell cycle arrest in human MIA PaCa-2 cells assessed as G1 phase cells at 0.5 uM incubated for 24 hrs by PI/RNase staining based analysis (reference value: 66 +/- 2%); assay type: functional
MIA PaCa-2 [33] = test: Induction of G2/M phase cell cycle arrest in human MIA PaCa-2 cells assessed as G1 phase cells at 0.1 uM incubated for 24 hrs by PI/RNase staining based analysis (reference value: 66 +/- 2%); assay type: functional

Compound	GI50 (A-431 [1]) [µM]	GI50 (MIA PaCa-2 [2]) [µM]	GI50 (HT-29 [4]) [µM]	GI50 (U-87 MG [9]) [µM]	GI50 (DU-145 [11]) [µM]	GI50 (NCI-H460 [13]) [µM]	GI50 (A2780 [15]) [µM]	inhibition at 25 µM (DU-145 [3]) [%]	GI50 [5] [µM]	inhibition at 25 µM (A2780 [6]) [%]	inhibition at 25 µM (A-431 [7]) [%]	inhibition at 25 µM [8] [%]	GI50 at 72 h [10] [µM]	inhibition at 25 µM (MCF7 [12]) [%]	inhibition at 72 h, 25 µM [14] [%]	inhibition at 25 µM (MIA PaCa-2 [16]) [%]	GI50 (BE(2)-C [17]) [µM]	inhibition at 25 µM (BE(2)-C [18]) [%]	inhibition at 25 µM (U-87 MG [19]) [%]	inhibition at 25 µM (NCI-H460 [20]) [%]	further results
CC(=O)O[C@H]1C(=O)[C@@]2(C)[C@H]([C@H](OC(=O)c3ccccc3)[C@]3(O)C[C@H](OC(=O)[C@H](O)[C@@H](NC(=O)c4ccccc4)c4ccccc4)C(C)=C1C3(C)C)[C@]1(OC(C)=O)CO[C@@H]1C[C@@H]2O																					Activity (Tubulin (Homo sapiens) [21]; filed as activator): Active
O=C1NC(CCc2ccccc2)Nc2ccccc21 (stereo not given)	3.6	13	3.5	19	17	12	3.9	27	16	29	14	16	14	38	23	27	3.6	19	< 10	< 10	Activity (Tubulin (Homo sapiens) [21]; filed as activator): Active; GI50 (MCF7 [22]): 14 µM; inhibition at 25 µM (HT-29 [23]): 29%
O=C1NC(/C=C/c2ccccc2[N+](=O)[O-])Nc2ccccc21 (stereo not given)								66		69	40	81		55	13	32		53	24	35	Activity (Tubulin (Homo sapiens) [21]): inactive; inhibition at 25 µM (HT-29 [23]): 37%
COc1ccc(/C=C/c2nc3ccccc3c(=O)[nH]2)cc1	33	5.5	3.8	> 50	45	11	12	41	6.4	66	45	89	11	> 100	60	67	4.4	66	24	60	inhibition (Tubulin (Homo sapiens) [24]): Active; GI50 (MCF7 [22]): 2.6 µM; inhibition at 25 µM (HT-29 [23]): 78%
COc1cccc(/C=C/c2nc3ccccc3c(=O)[nH]2)c1	2.6	2.9	0.9	10	3.9	2.2	2.6	78	2.8	> 100	> 100	100	2.2	> 100	95	93	2.1	99	75	> 100	Activity (Tubulin (Homo sapiens) [21]): inactive; GI50 (MCF7 [22]): 0.47 µM; inhibition at 25 µM (HT-29 [23]): > 100%
O=c1[nH]c(-c2ccc(Br)cc2)nc2ccccc12	5.8	8.8	5.2	10	4.5	5.7	3.9	98	4.3	83	88	66	5.4	99	91	71	6.4	77	91	68	GI50 (MCF7 [22]): 3.8 µM; inhibition at 25 µM (HT-29 [23]): 91%
O=C1NC(c2cccc3ccccc23)Nc2ccccc21 (stereo not given)	0.02	0.048	0.02	0.22	0.089	0.037	0.031	> 100	0.05	> 100	> 100	> 100	0.04	> 100	> 100	94	0.027	> 100	93	> 100	Activity (MIA PaCa-2 [25]): 11%; Activity (MIA PaCa-2 [26]): 17%; inhibition (Tubulin (Homo sapiens) [27]): Active; Activity (MIA PaCa-2 [28]): 55%; Activity (MIA PaCa-2 [29]): 11%; Activity (MIA PaCa-2 [30]): 4%; Activity (MIA PaCa-2 [31]): 22%; Activity (MIA PaCa-2 [32]): 17%; Activity (MIA PaCa-2 [33]): 63%; GI50 (MCF7 [22]): 0.075 µM; inhibition at 25 µM (HT-29 [23]): > 100%

The next lines start with results.

GI50 (A-431 [1]) [µM]	GI50 (MIA PaCa-2 [2]) [µM]	GI50 (HT-29 [4]) [µM]	GI50 (U-87 MG [9]) [µM]	GI50 (DU-145 [11]) [µM]	GI50 (NCI-H460 [13]) [µM]	GI50 (A2780 [15]) [µM]	Compound	inhibition at 25 µM (DU-145 [3]) [%]	GI50 [5] [µM]	inhibition at 25 µM (A2780 [6]) [%]	inhibition at 25 µM (A-431 [7]) [%]	inhibition at 25 µM [8] [%]	GI50 at 72 h [10] [µM]	inhibition at 25 µM (MCF7 [12]) [%]	inhibition at 72 h, 25 µM [14] [%]	inhibition at 25 µM (MIA PaCa-2 [16]) [%]	GI50 (BE(2)-C [17]) [µM]	inhibition at 25 µM (BE(2)-C [18]) [%]	inhibition at 25 µM (U-87 MG [19]) [%]	inhibition at 25 µM (NCI-H460 [20]) [%]	further results
0.64	2.3	0.4	2.7	2.4	2.5	0.45	O=c1[nH]c(/C=C/c2ccccc2)nc2ccccc12	> 100	2.2	> 100	> 100	> 100	2.3	> 100	> 100	96	0.5	> 100	> 100	> 100	Activity (Tubulin (Homo sapiens) [21]): inactive; GI50 (MCF7 [22]): 1.3 µM; inhibition at 25 µM (HT-29 [23]): > 100%
0.57	1	0.39	16	> 50	3.7	1.3	Cc1ccc2[nH]cc(-c3nc4ccccc4c(=O)[nH]3)c2c1		> 50				1.2				0.63				Activity (Tubulin (Homo sapiens) [21]; filed as activator): Active; GI50 (MCF7 [22]): 0.28 µM
